According to publication PMC8672434 (Journal of the American Chemical Society, 2021):
“And” between values parts separate entries of the source, which are not always exact repeats. Identical values can stand only once. Like-named read-outs stand apart in the source and are kept apart here.

Columns and labels:
SARS-CoV-2 M^pro [1] = target: T1, SARS-CoV-2 M^pro (Severe acute respiratory syndrome coronavirus 2, UniProt P0DTD1); assay: Thermal shift-binding assay; conditions: result in words
SARS-CoV-2 [2] = assay type: cell-based; conditions: read-out: Antiviral EC50 against SARS-CoV-2 in Calu-3 cells
SARS-CoV-2 [3] = assay type: cell-based; conditions: read-out: Antiviral EC50 against SARS-CoV-2 in Vero E6 cells
SARS-CoV-2 M^pro [4] = target: T1, SARS-CoV-2 M^pro; assay type: biochemical; conditions: read-out: SARS-CoV-2 M^pro IC50
cathepsin B = cathepsin B (Homo sapiens, UniProt P07858); assay: Host protease selectivity, FRET-based enzymatic assay: cathepsin B; assay type: biochemical
SARS-CoV-2 M^pro [5] = target: T1, SARS-CoV-2 M^pro; assay type: binding; conditions: native mass spectrometry
cathepsin L = cathepsin L (Homo sapiens, UniProt P07711); assay: Host protease selectivity, FRET-based enzymatic assay: cathepsin L; assay type: biochemical; conditions: for Inhibition of cathepsin L (in words): host protease selectivity
cathepsin L, sequence (P07711 114-333 limits assumed): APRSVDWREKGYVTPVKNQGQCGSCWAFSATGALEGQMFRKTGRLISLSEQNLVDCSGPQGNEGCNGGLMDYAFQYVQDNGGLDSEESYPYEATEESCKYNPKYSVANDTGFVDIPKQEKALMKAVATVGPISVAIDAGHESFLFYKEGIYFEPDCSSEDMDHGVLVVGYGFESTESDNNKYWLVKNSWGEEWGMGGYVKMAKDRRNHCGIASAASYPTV

caspase-3 = caspase-3 (Homo sapiens, UniProt P42574); assay: Host protease selectivity, FRET-based enzymatic assay: caspase-3; assay type: biochemical; conditions: for Inhibition of caspase-3 (in words): host protease selectivity
caspase-3, sequence (P42574 29-175): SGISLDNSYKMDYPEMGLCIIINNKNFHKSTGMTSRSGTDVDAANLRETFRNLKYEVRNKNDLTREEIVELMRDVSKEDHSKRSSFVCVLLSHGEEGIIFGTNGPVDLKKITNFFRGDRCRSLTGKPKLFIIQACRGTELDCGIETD
caspase-3, sequence (P42574 176-277): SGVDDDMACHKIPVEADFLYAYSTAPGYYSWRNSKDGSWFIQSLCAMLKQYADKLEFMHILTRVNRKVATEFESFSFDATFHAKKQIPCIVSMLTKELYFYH

cathepsin K = cathepsin K (Homo sapiens, UniProt P43235); assay: Host protease selectivity, FRET-based enzymatic assay: cathepsin K; assay type: biochemical
cathepsin K, sequence (P43235 115-329): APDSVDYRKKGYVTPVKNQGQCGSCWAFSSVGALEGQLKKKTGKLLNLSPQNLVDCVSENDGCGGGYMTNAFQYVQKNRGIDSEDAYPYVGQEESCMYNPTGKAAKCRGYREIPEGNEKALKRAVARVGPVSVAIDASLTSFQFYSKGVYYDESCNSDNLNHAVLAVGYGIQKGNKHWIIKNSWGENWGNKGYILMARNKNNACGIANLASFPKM

calpain I = calpain I (Homo sapiens, UniProt P07384); assay: Host protease selectivity, FRET-based enzymatic assay: calpain I; assay type: biochemical
calpain I, sequence (P07384 whole entry): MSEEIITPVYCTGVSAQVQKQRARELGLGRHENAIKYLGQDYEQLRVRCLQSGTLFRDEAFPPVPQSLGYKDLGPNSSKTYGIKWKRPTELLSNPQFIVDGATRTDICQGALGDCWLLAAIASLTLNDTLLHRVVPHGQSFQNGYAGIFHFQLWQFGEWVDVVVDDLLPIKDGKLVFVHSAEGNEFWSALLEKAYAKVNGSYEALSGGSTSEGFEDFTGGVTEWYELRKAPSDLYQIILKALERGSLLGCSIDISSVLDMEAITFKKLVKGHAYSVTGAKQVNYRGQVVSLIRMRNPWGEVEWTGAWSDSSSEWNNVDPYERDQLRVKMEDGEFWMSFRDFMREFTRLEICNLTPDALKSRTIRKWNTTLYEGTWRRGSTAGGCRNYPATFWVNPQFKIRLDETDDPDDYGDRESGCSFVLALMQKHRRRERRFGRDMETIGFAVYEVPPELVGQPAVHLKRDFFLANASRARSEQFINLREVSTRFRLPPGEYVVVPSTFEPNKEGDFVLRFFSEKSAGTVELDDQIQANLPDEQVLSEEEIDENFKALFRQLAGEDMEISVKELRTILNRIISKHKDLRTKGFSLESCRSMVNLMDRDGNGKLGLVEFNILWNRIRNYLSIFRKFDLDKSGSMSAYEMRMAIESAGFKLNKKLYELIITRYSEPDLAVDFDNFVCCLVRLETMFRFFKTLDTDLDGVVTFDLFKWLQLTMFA
calpain I, sequence (P04632 whole entry, further chain): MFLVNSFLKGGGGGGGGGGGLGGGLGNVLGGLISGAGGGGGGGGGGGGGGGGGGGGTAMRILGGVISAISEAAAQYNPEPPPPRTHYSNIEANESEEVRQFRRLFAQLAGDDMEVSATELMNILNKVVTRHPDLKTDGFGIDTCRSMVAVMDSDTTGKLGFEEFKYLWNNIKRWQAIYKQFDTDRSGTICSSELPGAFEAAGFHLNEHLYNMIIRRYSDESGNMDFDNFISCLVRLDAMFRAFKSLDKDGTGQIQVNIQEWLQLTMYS

SARS-CoV-2 M^pro [6] = target: T1, SARS-CoV-2 M^pro; assay: Fast dilution experiment; assay type: biochemical; conditions: 10 μM M^pro pre-incubated with 10 μM compound for 2 h at 30 °C, diluted 100-fold; compared with DMSO control
trypsin = assay: Host protease selectivity, FRET-based enzymatic assay: trypsin; assay type: biochemical
SARS-CoV-2 M^pro [7] = target: T1, SARS-CoV-2 M^pro; assay type: cell-based; conditions: read-out: FlipGFP M^pro assay EC50

## C[C@H](NC(=O)[C@@H](c1cccnc1)N(C(=O)C(Cl)Cl)c1ccc(-c2ccccc2)cc1)c1ccc(Br)cc1 [Jun9-90-3R]
SARS-CoV-2 M^pro [1]
  Tm shift of SARS-CoV-2 M^pro upon binding: stabilized
SARS-CoV-2 [2]
  EC50: 2 µM
SARS-CoV-2 [3]
  EC50: 2.07 µM

## C[C@H](NC(=O)C(c1cccnc1)N(C(=O)C(Cl)(Cl)Br)c1ccc(-c2ccccc2)cc1)c1ccccc1 (stereo partly drawn) [Jun9-89-3]
Vero E6 cells
  CC50: 32.4 µM

## C[C@H](NC(=O)[C@H](c1cccnc1)N(C(=O)C(Cl)Cl)c1ccc(-c2ccccc2)cc1)c1ccc(Br)cc1 [Jun9-90-3S]
SARS-CoV-2 M^pro [4]
  IC50: > 20 µM

## C[C@H](NC(=O)[C@H](c1cccnc1)N(C(=O)C(Cl)Cl)c1ccc(-c2ccccc2)cc1)c1ccccc1 [Jun9-62-2S]
SARS-CoV-2 M^pro [4]
  IC50: > 20 µM

## C[C@H](NC(=O)[C@@H](c1cccnc1)N(C(=O)C(Br)(Br)Br)c1ccc(-c2ccccc2)cc1)c1ccccc1 [Jun9-88-6R]
Cathepsin B
  Inhibition of cathepsin B (in words): did not show potent inhibition
SARS-CoV-2 M^pro [5]
  Mass modification of M^pro (covalent adduct): 526 Da
SARS-CoV-2 M^pro [1]
  Tm shift of SARS-CoV-2 M^pro upon binding: stabilized
Cathepsin L
  Inhibition of cathepsin L (in words): did not show potent inhibition
Cathepsin L; read-out: Cathepsin L IC50, FRET-based enzymatic assay
  IC50: 7.37 µM
caspase-3
  Inhibition of caspase-3 (in words): did not show potent inhibition
Cathepsin K
  Inhibition of cathepsin K (in words): did not show potent inhibition
Vero E6 cells
  CC50: 5.48 µM
Calpain I
  Inhibition of calpain I (in words): did not show potent inhibition
SARS-CoV-2 [3]
  EC50: 0.58 µM

## C[C@H](NC(=O)[C@@H](c1cccnc1)N(C(=O)c1ccco1)c1ccc(-c2ccccc2)cc1)c1ccccc1 [23R]
SARS-CoV-2 M^pro [6]
  Recovered enzymatic activity after 100-fold dilution: nearly complete recovery of enzymatic activity

## C[C@H](NC(=O)[C@@H](c1cccnc1)N(C(=O)C(Cl)(Br)Br)c1ccc(-c2ccccc2)cc1)c1ccccc1 [Jun9-89-4R]
SARS-CoV-2 M^pro [5]
  Mass modification of M^pro (covalent adduct): 481 Da and 561 Da
Vero E6 cells
  CC50: 8.41 µM

## C[C@H](NC(=O)[C@@H](c1cccnc1)N(C(=O)C(Br)Br)c1ccc(-c2ccccc2)cc1)c1ccccc1 [Jun9-89-2R]
SARS-CoV-2 M^pro [4]; FRET-based enzymatic assay
  IC50: 0.08 µM
SARS-CoV-2 M^pro [5]
  Mass modification of M^pro (covalent adduct): 526 Da
Vero E6 cells
  CC50: 8.94 µM

## C[C@H](NC(=O)[C@@H](c1cccnc1)N(C(=O)C(Cl)Cl)c1ccc(-c2ccccc2)cc1)c1ccccc1 [Jun9-62-2R]
trypsin
  Inhibition of trypsin (in words): did not show potent inhibition
Cathepsin B
  Inhibition of cathepsin B (in words): did not show potent inhibition
SARS-CoV-2 M^pro [5]
  Mass modification of M^pro (covalent adduct): 482 Da
Cathepsin L
  Inhibition of cathepsin L (in words): did not show potent inhibition
caspase-3
  Inhibition of caspase-3 (in words): did not show potent inhibition
Cathepsin K
  Inhibition of cathepsin K (in words): did not show potent inhibition
Calpain I
  Inhibition of calpain I (in words): did not show potent inhibition
SARS-CoV-2 M^pro [7]
  EC50: 0.96 µM
SARS-CoV-2 [3]
  EC50: 0.9 µM

## C[C@H](NC(=O)[C@H](c1cccnc1)N(C(=O)C(Br)Br)c1ccc(-c2ccccc2)cc1)c1ccccc1 [Jun9-89-2S]
SARS-CoV-2 M^pro [4]; FRET-based enzymatic assay
  IC50: 2.44 µM
Vero E6 cells
  CC50: 4.57 µM

## C[C@@H](CCc1ccccc1)NC(=O)[C@@H](c1cccnc1)N(C(=O)C(Cl)Cl)c1ccc(-c2ccccc2)cc1 [Jun9-90-4R]
SARS-CoV-2 M^pro [1]
  Tm shift of SARS-CoV-2 M^pro upon binding: stabilized
SARS-CoV-2 [3]
  EC50: 1.1 µM

## CC(C)C[C@H](NC(=O)OCc1ccccc1)C(=O)N[C@@H](CC1CCNC1=O)C(O)S(=O)(=O)[O-].[Na+] (stereo partly drawn) [GC-376, reference compound]
trypsin; read-out: Trypsin IC50, FRET-based enzymatic assay
  IC50: […]
Cathepsin B
  Inhibition of cathepsin B (in words): potent inhibition
Cathepsin L
  Inhibition of cathepsin L (in words): potent inhibition
caspase-3; read-out: Caspase-3 IC50, FRET-based enzymatic assay
  IC50: […]
Cathepsin K
  Inhibition of cathepsin K (in words): potent inhibition
Calpain I
  Inhibition of calpain I (in words): potent inhibition
SARS-CoV-2 [3]
  EC50: 1.51 µM

## C[C@H](NC(=O)[C@H](c1cccnc1)N(C(=O)C(Br)(Br)Br)c1ccc(-c2ccccc2)cc1)c1ccccc1 [Jun9-88-6S]
Vero E6 cells
  CC50: 5.99 µM

## CC#CC(=O)N(c1ccc(-c2ccccc2)cc1)C(C(=O)N[C@@H](C)c1ccccc1)c1cccnc1 (stereo partly drawn) [Jun9-62-1]
Calu-3 cells
  CC50: 47.8 µM
Vero E6 cells
  CC50: 18 µM
